ChEMBL document CHEMBL4190351, “Synthesis and biological evaluation of novel 6,11-dihydro-5H-benzo[e]pyrimido- [5,4-b][1,4]diazepine derivatives as potential c-Met inhibitors” (Eur J Med Chem, 2017)

Assays:
[1] = target: Hepatocyte growth factor receptor (Homo sapiens, UniProt P08581); assay: Inhibition of cMet (unknown origin) using poly(Glu, Tyr)4:1 substrate and ATP incubated fro 60 mins by ELISA
[2] = target: T1, Receptor-type tyrosine-protein kinase FLT3 (Homo sapiens, UniProt P36888); assay: Inhibition of FLT3 (unknown origin)
T1 sequence (P36888 whole entry): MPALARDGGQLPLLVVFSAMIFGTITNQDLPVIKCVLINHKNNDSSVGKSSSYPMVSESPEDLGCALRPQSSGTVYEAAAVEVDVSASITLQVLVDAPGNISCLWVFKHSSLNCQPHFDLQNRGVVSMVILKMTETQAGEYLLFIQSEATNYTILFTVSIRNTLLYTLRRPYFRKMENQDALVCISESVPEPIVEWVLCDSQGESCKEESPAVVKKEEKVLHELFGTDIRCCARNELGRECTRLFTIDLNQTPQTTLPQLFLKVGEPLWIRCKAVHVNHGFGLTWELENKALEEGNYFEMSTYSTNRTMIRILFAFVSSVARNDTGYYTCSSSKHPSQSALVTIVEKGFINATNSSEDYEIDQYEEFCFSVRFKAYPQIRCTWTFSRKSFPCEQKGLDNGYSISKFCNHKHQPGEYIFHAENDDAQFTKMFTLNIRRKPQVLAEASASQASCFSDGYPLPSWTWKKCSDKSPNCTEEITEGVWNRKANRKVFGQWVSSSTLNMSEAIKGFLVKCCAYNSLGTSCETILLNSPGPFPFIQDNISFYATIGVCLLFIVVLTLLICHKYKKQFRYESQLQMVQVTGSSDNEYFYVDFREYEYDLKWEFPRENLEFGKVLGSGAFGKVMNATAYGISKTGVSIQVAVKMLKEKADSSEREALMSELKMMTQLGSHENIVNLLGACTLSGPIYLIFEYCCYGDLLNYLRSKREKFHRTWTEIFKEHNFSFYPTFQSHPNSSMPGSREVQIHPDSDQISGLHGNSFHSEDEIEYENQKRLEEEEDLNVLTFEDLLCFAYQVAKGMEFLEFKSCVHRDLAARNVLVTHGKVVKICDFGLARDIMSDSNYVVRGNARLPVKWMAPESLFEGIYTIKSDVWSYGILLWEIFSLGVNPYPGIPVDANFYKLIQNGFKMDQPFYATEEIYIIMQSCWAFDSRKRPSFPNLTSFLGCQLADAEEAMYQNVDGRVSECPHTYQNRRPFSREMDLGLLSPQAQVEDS

[3] = MRT (0 to t) in Sprague-Dawley rat at 4 mg/kg, iv measured after 5 mins to 4 hrs post dose by LC-MS/MS method; format: ADME, organism-based; details: in vivo
[4] = AUC (0 to infinity) in Sprague-Dawley rat at 4 mg/kg, iv measured after 5 mins to 4 hrs post dose by LC-MS/MS method; format: ADME, organism-based; set-up: dose 4 mg/kg, time infinity, route intravenous; details: in vivo
[5] = Apparent volume of distribution during terminal phase in Sprague-Dawley rat at 20 mg/kg, po measured after 5 mins to 4 hrs post dose by LC-MS/MS method; format: ADME, organism-based; details: in vivo, read-out: Vz/F
HepG2 = assay: Cytotoxicity in human HepG2 cells incubated for 72 hrs by sulforhodamine B assay; details: HepG2, 72 h
[6] = Oral bioavailability in Sprague-Dawley rat at 20 mg/kg measured after 5 mins to 4 hrs post dose by LC-MS/MS method; format: ADME, organism-based; details: in vivo
Mus musculus [7] = assay: Toxicity in KM mouse assessed as mouse mortality at 620 mg/kg, po administered as single dose measured daily for 14 days; format: organism-based; details: in vivo, 336 h
[8] = Cmax in Sprague-Dawley rat at 20 mg/kg, po measured after 5 mins to 4 hrs post dose by LC-MS/MS method; format: ADME, organism-based; set-up: dose 20 mg/kg, route oral; details: in vivo
[9] = Cmax in Sprague-Dawley rat at 4 mg/kg, iv measured after 5 mins to 4 hrs post dose by LC-MS/MS method; format: ADME, organism-based; set-up: dose 4 mg/kg, route intravenous; details: in vivo
CAKI-1 [10] = assay: Cytotoxicity in human Caki1 cells incubated for 72 hrs by sulforhodamine B assay; details: CAKI-1, 72 h
[11] = AUC (0 to t) in Sprague-Dawley rat at 20 mg/kg, po measured after 5 mins to 4 hrs post dose by LC-MS/MS method; format: ADME, organism-based; set-up: time 0.083-4 hr, dose 20 mg/kg, route oral; details: in vivo
CAKI-1 [12] = assay: Antitumor activity in human Caki1 cells xenografted in nude mouse assessed as inhibition of tumor growth at 40 mg/kg, ig qd for 21 days; format: functional; details: CAKI-1, po, 504 h, read-out: TGI
[13] = target: Voltage-gated inwardly rectifying potassium channel KCNH2 (Homo sapiens, UniProt Q12809); assay: Inhibition of human ERG at holding potential of -80 mV by cell based automated Qpatch method
Sequence of Voltage-gated inwardly rectifying potassium channel KCNH2 (Q12809 whole entry): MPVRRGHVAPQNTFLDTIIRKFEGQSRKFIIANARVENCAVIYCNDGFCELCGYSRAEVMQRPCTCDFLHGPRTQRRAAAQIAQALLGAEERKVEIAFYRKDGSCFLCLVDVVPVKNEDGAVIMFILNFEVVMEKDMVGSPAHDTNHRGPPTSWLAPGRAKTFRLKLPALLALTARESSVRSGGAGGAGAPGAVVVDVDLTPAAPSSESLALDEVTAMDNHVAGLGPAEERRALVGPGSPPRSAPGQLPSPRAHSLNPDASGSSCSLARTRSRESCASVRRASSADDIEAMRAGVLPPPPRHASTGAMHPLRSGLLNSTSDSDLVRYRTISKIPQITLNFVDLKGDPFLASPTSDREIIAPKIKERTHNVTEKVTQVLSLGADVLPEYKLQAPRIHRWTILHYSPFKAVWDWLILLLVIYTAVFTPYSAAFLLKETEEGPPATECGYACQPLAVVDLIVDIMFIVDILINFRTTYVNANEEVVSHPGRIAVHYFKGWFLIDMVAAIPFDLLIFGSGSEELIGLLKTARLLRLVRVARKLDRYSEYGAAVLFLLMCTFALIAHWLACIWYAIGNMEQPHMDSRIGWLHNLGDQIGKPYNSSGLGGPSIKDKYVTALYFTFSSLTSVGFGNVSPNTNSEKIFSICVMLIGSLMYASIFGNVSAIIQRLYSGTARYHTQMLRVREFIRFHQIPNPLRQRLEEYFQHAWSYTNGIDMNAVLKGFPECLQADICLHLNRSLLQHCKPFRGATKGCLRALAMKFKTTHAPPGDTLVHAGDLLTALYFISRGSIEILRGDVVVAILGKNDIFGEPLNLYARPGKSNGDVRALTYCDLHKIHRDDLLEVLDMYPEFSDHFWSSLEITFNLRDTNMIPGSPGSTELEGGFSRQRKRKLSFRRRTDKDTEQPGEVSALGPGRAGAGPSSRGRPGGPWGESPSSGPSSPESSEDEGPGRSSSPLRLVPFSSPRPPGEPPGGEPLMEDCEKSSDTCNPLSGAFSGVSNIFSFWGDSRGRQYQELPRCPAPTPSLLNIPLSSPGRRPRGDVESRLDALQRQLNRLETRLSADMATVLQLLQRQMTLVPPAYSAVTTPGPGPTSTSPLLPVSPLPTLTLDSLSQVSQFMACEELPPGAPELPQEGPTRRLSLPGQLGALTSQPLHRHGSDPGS

[14] = Toxicity in KM mouse assessed as mouse survival at 620 mg/kg, po administered as single dose measured daily for 14 days (reference value: 100%); format: organism-based; details: in vivo
[15] = Toxicity in KM mouse assessed as mouse survival at 420 mg/kg, po administered as single dose measured daily for 14 days (reference value: 100%); format: organism-based; details: in vivo
[16] = Elimination half life in Sprague-Dawley rat at 20 mg/kg, po measured after 5 mins to 4 hrs post dose by LC-MS/MS method; format: ADME, organism-based; details: in vivo, read-out: beta t1/2 (converted)
[17] = Toxicity in KM mouse assessed as mouse survival at 720 mg/kg, po administered as single dose measured daily for 14 days (reference value: 100%); format: organism-based; details: in vivo
[18] = target: Proto-oncogene tyrosine-protein kinase receptor Ret (Homo sapiens, UniProt P07949); assay: Inhibition of RET (unknown origin)
Sequence of Proto-oncogene tyrosine-protein kinase receptor Ret (P07949 whole entry): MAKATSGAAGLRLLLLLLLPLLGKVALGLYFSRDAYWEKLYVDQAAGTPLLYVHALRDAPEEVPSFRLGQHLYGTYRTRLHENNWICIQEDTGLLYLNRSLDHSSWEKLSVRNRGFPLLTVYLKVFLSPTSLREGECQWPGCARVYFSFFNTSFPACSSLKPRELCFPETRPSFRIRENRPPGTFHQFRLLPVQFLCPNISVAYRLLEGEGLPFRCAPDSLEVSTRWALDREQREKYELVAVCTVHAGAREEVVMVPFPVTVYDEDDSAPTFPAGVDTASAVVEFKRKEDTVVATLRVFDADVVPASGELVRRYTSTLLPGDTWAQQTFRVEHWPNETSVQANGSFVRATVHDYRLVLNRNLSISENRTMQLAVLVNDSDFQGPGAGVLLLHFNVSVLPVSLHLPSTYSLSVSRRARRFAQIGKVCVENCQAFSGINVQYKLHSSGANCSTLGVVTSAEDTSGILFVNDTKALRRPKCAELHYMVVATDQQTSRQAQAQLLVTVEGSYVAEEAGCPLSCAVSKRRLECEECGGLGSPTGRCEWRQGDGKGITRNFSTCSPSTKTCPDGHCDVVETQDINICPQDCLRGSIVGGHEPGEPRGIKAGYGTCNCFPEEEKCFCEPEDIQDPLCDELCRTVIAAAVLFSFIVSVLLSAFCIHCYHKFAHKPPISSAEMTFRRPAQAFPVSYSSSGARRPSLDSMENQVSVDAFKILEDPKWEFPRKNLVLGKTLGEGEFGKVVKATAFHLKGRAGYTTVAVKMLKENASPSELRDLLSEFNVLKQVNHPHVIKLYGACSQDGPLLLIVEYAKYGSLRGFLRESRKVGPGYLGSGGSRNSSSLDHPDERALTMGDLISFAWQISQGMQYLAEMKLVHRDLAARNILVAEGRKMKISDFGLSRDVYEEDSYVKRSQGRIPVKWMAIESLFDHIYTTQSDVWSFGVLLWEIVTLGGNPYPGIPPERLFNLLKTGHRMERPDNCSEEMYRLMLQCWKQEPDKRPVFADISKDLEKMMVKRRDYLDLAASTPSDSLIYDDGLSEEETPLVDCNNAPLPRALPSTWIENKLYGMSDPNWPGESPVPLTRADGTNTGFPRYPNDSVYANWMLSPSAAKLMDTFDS

[19] = Tmax in Sprague-Dawley rat at 20 mg/kg, po measured after 5 mins to 4 hrs post dose by LC-MS/MS method; format: ADME, organism-based; details: in vivo
[20] = target: Mast/stem cell growth factor receptor Kit (Homo sapiens, UniProt P10721); assay: Inhibition of cKIT (unknown origin)
Sequence of Mast/stem cell growth factor receptor Kit (P10721 whole entry): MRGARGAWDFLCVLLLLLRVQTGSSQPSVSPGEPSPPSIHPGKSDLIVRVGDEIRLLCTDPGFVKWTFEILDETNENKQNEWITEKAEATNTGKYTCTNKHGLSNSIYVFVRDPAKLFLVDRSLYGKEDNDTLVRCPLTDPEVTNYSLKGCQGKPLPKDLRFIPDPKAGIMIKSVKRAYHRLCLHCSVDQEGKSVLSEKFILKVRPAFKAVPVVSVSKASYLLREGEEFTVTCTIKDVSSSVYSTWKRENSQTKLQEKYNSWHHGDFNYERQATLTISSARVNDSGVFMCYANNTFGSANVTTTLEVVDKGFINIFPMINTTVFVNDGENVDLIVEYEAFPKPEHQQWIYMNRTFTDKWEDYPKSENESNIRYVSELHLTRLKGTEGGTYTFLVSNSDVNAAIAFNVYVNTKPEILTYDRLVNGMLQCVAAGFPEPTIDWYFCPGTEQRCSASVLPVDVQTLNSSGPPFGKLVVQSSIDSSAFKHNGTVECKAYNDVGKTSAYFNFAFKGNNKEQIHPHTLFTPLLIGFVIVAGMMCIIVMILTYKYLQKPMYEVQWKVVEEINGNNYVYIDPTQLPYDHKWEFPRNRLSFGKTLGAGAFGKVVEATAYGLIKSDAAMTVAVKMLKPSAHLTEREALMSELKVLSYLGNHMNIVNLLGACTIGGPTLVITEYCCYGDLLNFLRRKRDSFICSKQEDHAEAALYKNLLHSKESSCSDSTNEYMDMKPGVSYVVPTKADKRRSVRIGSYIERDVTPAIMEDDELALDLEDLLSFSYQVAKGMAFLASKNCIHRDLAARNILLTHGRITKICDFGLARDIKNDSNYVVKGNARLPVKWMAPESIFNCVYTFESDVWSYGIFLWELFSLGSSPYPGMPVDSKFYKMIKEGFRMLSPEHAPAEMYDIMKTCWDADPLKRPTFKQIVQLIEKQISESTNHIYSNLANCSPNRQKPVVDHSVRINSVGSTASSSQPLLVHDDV

[21] = AUC (0 to infinity) in Sprague-Dawley rat at 20 mg/kg, po measured after 5 mins to 4 hrs post dose by LC-MS/MS method; format: ADME, organism-based; set-up: dose 20 mg/kg, time infinity, route oral; details: in vivo
[22] = Toxicity in KM mouse assessed as mouse survival at 820 mg/kg, po administered as single dose measured daily for 14 days (reference value: 100%); format: organism-based; details: in vivo
[23] = Toxicity in KM mouse assessed as mouse survival at 520 mg/kg, po administered as single dose measured daily for 14 days (reference value: 100%); format: organism-based; details: in vivo
[24] = Toxicity in KM mouse assessed as mouse survival at 920 mg/kg, po administered as single dose measured daily for 14 days (reference value: 100%); format: organism-based; details: in vivo
PC-3 = assay: Cytotoxicity in human PC3 cells incubated for 72 hrs by sulforhodamine B assay; details: PC-3, 72 h
Mus musculus [25] = assay: Toxicity in KM mouse assessed as mouse mortality at 520 mg/kg, po administered as single dose measured daily for 14 days; format: organism-based; details: in vivo, 336 h
Rattus norvegicus [26] = assay: Apparent clearance during terminal phase in Sprague-Dawley rat at 4 mg/kg, iv measured after 5 mins to 4 hrs post dose by LC-MS/MS method; format: ADME, organism-based; details: in vivo
PANC-1 = assay: Cytotoxicity in human PANC1 cells incubated for 72 hrs by sulforhodamine B assay; details: PANC-1, 72 h
[27] = MRT (0 to t) in Sprague-Dawley rat at 20 mg/kg, po measured after 5 mins to 4 hrs post dose by LC-MS/MS method; format: ADME, organism-based; details: in vivo
[28] = target: Epidermal growth factor receptor (Homo sapiens, UniProt P00533); assay: Inhibition of EGFR (unknown origin)
[29] = Apparent clearance during terminal phase in Sprague-Dawley rat at 20 mg/kg, po measured after 5 mins to 4 hrs post dose by LC-MS/MS method; format: ADME, organism-based; details: in vivo, read-out: CLz/F (converted)
[30] = AUC (0 to t) in Sprague-Dawley rat at 4 mg/kg, iv measured after 5 mins to 4 hrs post dose by LC-MS/MS method; format: ADME, organism-based; set-up: time 0.083-4 hr, dose 4 mg/kg, route intravenous; details: in vivo
Mus musculus [31] = assay: Toxicity in human Caki1 cells xenografted nude mouse assessed as drug tolerance at 20 to 80 mg/kg, ig qd for 21 days; format: organism-based; details: in vivo, po, 504 h
[32] = target: Vascular endothelial growth factor receptor 2 (Homo sapiens, UniProt P35968); assay: Inhibition of VEGFR2 (unknown origin)
CAKI-1 [33] = assay: Antitumor activity in human Caki1 cells xenografted in nude mouse assessed as inhibition of tumor growth at 80 mg/kg, ig qd for 21 days; format: functional; details: CAKI-1, po, 504 h, read-out: TGI
Mus musculus [34] = assay: Toxicity in KM mouse assessed as mouse mortality at 420 mg/kg, po administered as single dose measured daily for 14 days; format: organism-based; details: in vivo, 336 h
[35] = Elimination half life in Sprague-Dawley rat at 4 mg/kg, iv measured after 5 mins to 4 hrs post dose by LC-MS/MS method; format: ADME, organism-based; details: in vivo, read-out: beta t1/2 (converted)
CAKI-1 [36] = assay: Antitumor activity in human Caki1 cells xenografted in nude mouse assessed as inhibition of tumor growth at 20 mg/kg, ig qd for 21 days; format: functional; details: CAKI-1, po, 504 h, read-out: TGI
Rattus norvegicus [37] = assay: Apparent volume of distribution during terminal phase in Sprague-Dawley rat at 4 mg/kg, iv measured after 5 mins to 4 hrs post dose by LC-MS/MS method; format: ADME, organism-based; details: in vivo

Sequence of Hepatocyte growth factor receptor (P08581 whole entry): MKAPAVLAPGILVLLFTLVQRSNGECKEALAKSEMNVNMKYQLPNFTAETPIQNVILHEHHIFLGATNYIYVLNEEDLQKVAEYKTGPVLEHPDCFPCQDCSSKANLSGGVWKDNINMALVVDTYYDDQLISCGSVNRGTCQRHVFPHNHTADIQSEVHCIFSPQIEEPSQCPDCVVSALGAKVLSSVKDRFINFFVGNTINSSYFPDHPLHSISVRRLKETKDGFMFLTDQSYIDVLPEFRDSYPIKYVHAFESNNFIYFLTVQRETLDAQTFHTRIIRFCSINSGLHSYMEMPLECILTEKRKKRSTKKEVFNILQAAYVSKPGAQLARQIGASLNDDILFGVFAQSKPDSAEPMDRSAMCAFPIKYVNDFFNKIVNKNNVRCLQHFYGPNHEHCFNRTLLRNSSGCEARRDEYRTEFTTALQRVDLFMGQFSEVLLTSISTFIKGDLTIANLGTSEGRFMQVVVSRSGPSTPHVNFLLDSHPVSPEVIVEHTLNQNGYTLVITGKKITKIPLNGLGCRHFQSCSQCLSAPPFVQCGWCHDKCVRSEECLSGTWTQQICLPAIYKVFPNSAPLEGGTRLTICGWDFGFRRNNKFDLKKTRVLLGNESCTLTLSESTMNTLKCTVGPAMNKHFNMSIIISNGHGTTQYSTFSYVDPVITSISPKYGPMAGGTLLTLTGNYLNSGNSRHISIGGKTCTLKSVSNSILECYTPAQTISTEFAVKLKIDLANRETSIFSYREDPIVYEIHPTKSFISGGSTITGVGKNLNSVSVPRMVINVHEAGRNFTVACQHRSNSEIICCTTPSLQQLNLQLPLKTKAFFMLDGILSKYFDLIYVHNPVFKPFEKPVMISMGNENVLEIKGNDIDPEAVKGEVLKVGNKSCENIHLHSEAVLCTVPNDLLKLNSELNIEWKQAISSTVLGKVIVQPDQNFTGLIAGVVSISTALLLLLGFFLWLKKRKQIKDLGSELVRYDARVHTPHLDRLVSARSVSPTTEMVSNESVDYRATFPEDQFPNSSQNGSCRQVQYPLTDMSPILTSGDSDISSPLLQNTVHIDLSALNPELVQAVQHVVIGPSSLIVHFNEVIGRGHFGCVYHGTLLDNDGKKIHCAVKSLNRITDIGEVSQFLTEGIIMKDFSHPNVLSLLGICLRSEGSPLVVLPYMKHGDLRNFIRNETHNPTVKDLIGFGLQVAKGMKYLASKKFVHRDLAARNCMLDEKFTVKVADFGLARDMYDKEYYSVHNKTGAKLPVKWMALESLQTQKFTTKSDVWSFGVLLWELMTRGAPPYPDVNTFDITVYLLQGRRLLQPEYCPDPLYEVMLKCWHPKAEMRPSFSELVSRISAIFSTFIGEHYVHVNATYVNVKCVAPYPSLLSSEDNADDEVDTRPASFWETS

Structure (SMILES): COc1cc2c(cc1OC)Nc1ncnc(Oc3ccc(NC(=O)C4(C(=O)Nc5ccc(F)cc5)CC4)cc3)c1N(C)C2
- IC50 [1]: > 1000 nM

Structure (SMILES): COc1cc2c(cc1OC)Nc1nccc(Oc3ccc(NC(=O)C4(C(=O)Nc5ccc(F)cc5)CC4)cc3F)c1N=C2
- IC50 [1]: > 1000 nM

Structure (SMILES): COc1cc2c(cc1OC)Nc1ncnc(Oc3ccc(NC(=O)C4(C(=O)Nc5ccc(F)cc5)CC4)cc3F)c1NC2
- IC50 [2]: 852 nM
- MRT last [3]: 1 h
- AUC(0-inf) [4]: 3590 ng·h/mL
- Vd/F [5]: 4.52 L/kg
- IC50 (HepG2): 2950 nM
- bioavailability [6]: 39%
- Activity (Mus musculus [7]): Non-Toxic
- Cmax [8]: 1930 ng/mL
- Cmax [9]: 4660 ng/mL
- IC50 (CAKI-1 [10]): 748 nM
- AUC(0-t) [11]: 6990 ng·h/mL
- inhibition in vivo at 40 mg/kg (CAKI-1 [12]): 58.9%
- IC50 [13]: > 40000 nM
- survival at 336 h [14]: 100%
- survival at 336 h [15]: 100%
- half-life [16]: 1.09 h
- survival at 336 h [17]: 80%
- IC50 [18]: 163 nM
- Tmax [19]: 1.67 h
- IC50 [20]: 259 nM
- AUC(0-inf) [21]: 7080 ng·h/mL
- survival at 336 h [22]: 60%
- survival at 336 h [23]: 100%
- survival at 336 h [24]: 40%
- IC50 [1]: 24.4 nM
- IC50 (PC-3): 4100 nM
- Activity (Mus musculus [25]): Non-Toxic
- CLz/F (Rattus norvegicus [26]): 19 mL/min/kg
- IC50 (PANC-1): 1860 nM
- MRT last [27]: 2.36 h
- IC50 [28]: 268 nM
- CL/F [29]: 48.8 mL/min/kg
- AUC(0-t) [30]: 3590 ng·h/mL
- Activity (Mus musculus [31]): Non-Toxic
- IC50 [32]: 62.5 nM
- inhibition in vivo at 80 mg/kg (CAKI-1 [33]): 64.5%
- Activity (Mus musculus [34]): Non-Toxic
- half-life [35]: 0.91 h
- inhibition in vivo at 20 mg/kg (CAKI-1 [36]): 51.1%
- Vz/F (Rattus norvegicus [37]): 1.48 L/kg

Structure (SMILES): COc1cc2c(cc1OC)Nc1nccc(Oc3ccc(NC(=O)C4(C(=O)Nc5ccc(F)cc5)CC4)cc3)c1N=C2
- IC50 [1]: > 1000 nM

Structure (SMILES): COc1cc2c(cc1OC)Nc1ncnc(Oc3ccc(NC(=O)C4(C(=O)Nc5ccc(F)cc5)CC4)cc3F)c1N(C)C2
- IC50 [1]: > 1000 nM

Structure (SMILES): COc1ccc2c(c1)CNc1c(nc(C)nc1Oc1ccc(NC(=O)C3(C(=O)Nc4ccc(F)cc4)CC3)cc1)N2
- IC50 [1]: > 1000 nM

Structure (SMILES): COc1cc2c(cc1OC)Nc1ncnc(Oc3ccc(NC(=O)C4(C(=O)Nc5ccc(F)cc5)CC4)cc3)c1N=C2
- IC50 (HepG2): 2070 nM
- IC50 (CAKI-1 [10]): 1480 nM
- IC50 (PC-3): 1420 nM
- IC50 (PANC-1): 2720 nM

Structure (SMILES): COc1cc2c(cc1OC)C(=O)Nc1c(Oc3ccc(NC(=O)C4(C(=O)Nc5ccc(F)cc5)CC4)cc3)ccnc1N2
- IC50 [1]: > 1000 nM

Structure (SMILES): COc1cc2c(cc1OC)Oc1ncnc(Oc3ccc(NC(=O)C4(C(=O)Nc5ccc(F)cc5)CC4)cc3)c1N=C2
- IC50 [1]: > 1000 nM

Structure (SMILES): COc1cc2c(cc1OC)Nc1nccc(Oc3ccc(NC(=O)C4(C(=O)Nc5ccc(F)cc5)CC4)cc3F)c1NC2
- IC50 [1]: > 1000 nM
